Assay results reported in US20250312296A1, “PETROLATUM-BASED PHMB COMPOSITIONS AND METHODS FOR THE TREATMENT OF INFLAMMATORY SKIN DISEASE” (GLOBAL HEALTH SOLUTIONS, INC., priority 2020, published 2025).
Several values for one entry are separate records, joined by “and”; a condition that tells them apart may be missing. Equal values may be shown once.

System: Rabbit Skin
Experiment: Rabbit skin irritation
Method: Within 24 hours to 4 hours before test application, the backs of female albino New Zealand White rabbits were clipped free of hair, exposing 2 test and 2 control areas on each side of the spine with a size of approximately 15 cm×15 cm. The two test sites are located on the left cranial section and the right caudal section of the dorsal region. The two control sites are located on the left caudal and right cranial section of the dorsal region. FIG. 4 depicts the arrangement of test and control sites. The exposed skin is wiped with alcohol and dried. Rabbits of acceptable skin quality were selected and used for testing.
A 25×25 mm gauze patch saturated with 0.5 mL of 0.9% NaCl is used for the control and applied to the clipped control sites. The patches are secured using hypoallergenic, waterproof, surgical tape over the test and control sites. The animal's trunk is securely wrapped so as to maintain the position of the patches. Patches are left applied for a minimum of four hours.
After patch removal, the test and control sites were then scored for erythema and edema at 1, 24, 48 and 72 hours after patch removal. Only the 24, 48, and 72 hour observations were scored and used for calculations. If no response was expected, testing was conducted using three animals per test article. If irritation was anticipated, one animal was tested initially. If the first animal received a score of 2 or less for either erythema or edema, 2 additional rabbits were used to conclude the test.
This total was divided by the total number of observations. The same was done for the control sites. […] These scores for each animal were added and divided by the total number of animals to give the Primary Irritation Index. […] For any response, the Maximum Irritation Response, the time of onset of the response and the time of maximum response was recorded.
To positively validate the test, 10% sodium dodecyl sulfate (SDS), which is a known dermal irritant, in petroleum jelly was applied to a 2.5 cm×2.5 cm gauze patch. As a negative control, 0.5 mL of 0.9% NaCl was applied to a 2.5 cm×2.5 cm gauze patch. A Primary Irritation Index in the moderate to severe range is considered a positive result. The test system and methods utilized were the same as described above.

[1] = per rabbit, scores of 24, 48 and 72 hour observations added, patch at least four hours, sulfate

SMILES: CCCCCCCCCCCCOS(=O)(=O)[O-].[Na+] [10% SDS, sodium dodecyl sulfate]
- Primary Irritation Index (3 animals, 0-0.4 Negligible, 0.5-1.9 Slight, 2-4.9 Moderate, 5-8 Severe): Total Average (19.3) = 6.4 Primary Irritation Index
- ED (edema) score [1]: 19 and 21 and 14
- ER (erythema) score [1]: 21 and 23 and 18
- ER + ED = Total (per rabbit, scores of 24, 48 and 72 hour observations added, sulfate): 40 and 44 and 32
